Results reported in patent US20230047961A1, “THE CHOLESTEROL-SYNTESIS INTERMEDIATES FOR TREATMENT DEMYELINATING DISORDERS” (priority 2019, published 2023).
Entries after “also recorded” stand apart in the source; their conditions may differ.

Assays:
[1] = tested on: spinal cord tissue gene expression; test: RT-qPCR expression profile in spinal cord lysates of EAE mice; type: in vivo, mouse; conditions: remission phase
Procedure: (§1) For tissue expression analyses, spinal cord tissue was dissected from ˜Th10-˜L5. RNA was isolated using QIAshredder and RNeasy protocols (Qiagen). Concentration and quality of RNA was evaluated using a NanoDrop spectrophotometer and RNA Nano (Agilent). cDNA was synthesized with Superscript III (Invitrogen) and quantitative PCRs were done in triplicates with the GoTaq qPCR Master Mix (Promega) on a 7500 Fast Real-Time PCR System (Applied Biosystems). Expression values were normalized to the mean of three—five housekeeping genes, HPRT (Hypoxanthin-Phosphoribosyl-Transferase 1) and Rplp0 (60S acidic ribosomal protein P), Rps13 (Ribosomal Protein S13), Gapdh (Glyceraldehyde-3-Phosphate Dehydrogenase), 18S (18S ribosomal RNA) and quantification was done by applying the ΔΔCt method, normalized to age matched untreated controls (set to 1). All primers were intron-spanning.

[2] = tested on: lysolecithin induced lesions; test: Remyelination in lysolecithin induced spinal cord lesions; type: in vivo, mouse; conditions: 14 days post lesion
Procedure: Focal spinal cord demyelinating lesions were induced under MMF anesthesia (1.0 mg kg^−1 midazolam, 0.05 mg kg^−1 medetomidine and 0.02 mg kg^−1 fentanyl) by stereotactic injection of 1 μl lysolecithin (1%, from egg yolk, alpha-lysophosphatidyl-choline, Sigma) into the left and right ventro-lateral funiculus at Th10 of 8-week old animals. The injection was performed at a rate of ˜1 μl min^−1. This procedure created fusiform demyelinating lesions, 5-6 mm in length. At the day of injection, mice were randomly assigned to normal or 0.5% [v/w] squalene supplemented chow for 14 days, after which the animals were killed, and the spinal cord processed for histology. For serum isolation, blood was collected by cardiac puncture, and serum was prepared after 4 h clotting by centrifugation.
Mice were perfused with 4% paraformaldehyde (PFA). Spinal cord tissue was postfixed overnight, embedded in paraffin and cut into […] sections (HMP 110, MICROM). For immunohistological analyses, sections were deparaffinized followed by antigen-retrieval in sodium citrate buffer (0.01 M, pH 6.0). For immunofluorescence, sections were blocked with serum free protein block (Dako). Primary antibodies were diluted in 2% bovine serum albumin (BSA)/PBS and incubated for 48 h followed by fluorophor coupled secondary antibodies. Lesion area (DAPI clustered nuclei), oligodendrocyte cell number (CAll, carbonic anhydrase 2) and myelin positive area (MBP, myelin basic protein) were evaluated.

[3] = tested on: peripheral inflammatory cells; test: Flow cytometry of peripheral inflammatory cells per ml blood in EAE; type: in vivo, mouse; conditions: peak of EAE disease (day 16), therapeutic squalene vs normal chow (FIG. 3a-c)
Procedure: (§2) Single-cell suspensions from spinal cords were obtained via mechanical dissociation on a cell strainer. Immune cells were separated over a two-phase Percoll-density gradient (70%/30%). Blood was collected by cardiac puncture in EDTA (80 mM) and single-cell suspension was obtained by centrifugation over lymphocyte separation medium (LSM 1077, PAA). Staining of abTCR/CD4 T cells, abTCR/CD8 T cells and CD45/CD11 b cells (macrophages/microglia) was performed using the following antibodies in a 1:200 dilution:Anti-CD3e (clone 145-2C11), BioLegend; anti-CD4 (clone GK 1.5), BD; anti-CD8 (clone 53-6.7), BD; […]; anti-CD11b (clone M1/70), BioLegend; anti-CD45.2 (clone 104), BioLegend. The addition of Calibrite APC beads (BD) allowed for cell quantification. Flow cytometry was performed using a FACSCalibur operated by Cell Quest software (Becton Dickinson).

[4] = tested on: inflammatory cells in brain and spinal cord tissue; test: Flow cytometry of inflammatory cells in brain and spinal cord of Plp1-tg mice; type: in vivo, mouse; conditions: 0.5% [v/w] squalene diet between 2 and 12 weeks of age (FIG. 14b)
Procedure: as §2
(§3) Plp1 transgenic Plp1-tg, line #72 mice (Readhead et al., 1994, Stumpf, Berghoff et al., 2019) harbor three copies of the murine Plp1 gene. Dietary treatment was applied between 2 and 12 weeks of age.
(§4) Dietary supplementation with squalene (0.5% [v/w]).

Plp1-tg mice = test: Elevated beam test in Plp1-tg mice (Pelizaeus-Merzbacher disease model); type: in vivo, mouse; conditions: 0.5% [v/w] squalene diet between 2 and 12 weeks of age (FIG. 14a)
Description: as §3, §4
To assess bilateral sensorimotor coordination that involves connecting white matter structures, elevated beam test (in-house made, MPI of experimental medicine) was applied. Mice were trained to run toward a hiding box on a beam (width 1.5 cm) one week before testing. In one testing session number of slips in a defined 55 cm distance over three repeats was counted. Mean number of slips after three testing sessions (8 weeks, 10 weeks and 12 weeks) was quantified.

[5] = tested on: inflammatory cells in spinal cord tissue; test: Flow cytometry of inflammatory cells per gram spinal cord in EAE; type: in vivo, mouse; conditions: peak of EAE disease (day 16), therapeutic squalene vs normal chow (FIG. 2)
[6] = tested on: MOG35-55 induced EAE animals; test: Clinical score of MOG35-55 induced EAE animals; type: in vivo, mouse
Procedure: For MOG-EAE, mice purchased from Charles River were immunized subcutaneously with […] myelin oligodendrocyte glycoprotein peptide 35-55 (MOG35-55) in complete Freund's adjuvant (M. tuberculosis at 3.75 mg ml^−1) and i.p. injected twice with 500 ng pertussis toxin. Animals were examined daily and scored for clinical signs of the disease. […] The clinical score was: 0 normal; 0.5 loss of tail tip tone; 1 loss of tail tone; 1.5 ataxia, mild walking deficits (slip off the grid); 2 mild hind limb weakness, severe gait ataxia, twist of the tail causes rotation of the whole body; 2.5 moderate hind limb weakness, cannot grip the grid with hind paw, but able to stay on a upright tilted grid; 3 mild paraparesis, falls down from a upright tiled grid; 3.5 paraparesis of hind limbs (legs strongly affected, but move clearly); 4 paralysis of hind limbs, weakness in forelimbs; 4.5 forelimbs paralyzed; 5 moribund/dead. […] DMHCA (Avanti) was dissolved in corn oil (Sigma) and given therapeutically in chow at a dosage of 8 mg kg^−1. IFNβ1b (Bayer) was administrated by daily intraperitoneal (i.p.) injections 30.000 U per animal.

[7] = tested on: CD11b+ myeloid cells (microglia/macrophages); test: RT-qPCR expression profile in MACS isolated CD11b+ myeloid cells of EAE mice; type: in vivo, mouse
Description: Microglia/Macrophages were isolated according to the adult brain dissociation protocol (Miltenyi biotec). Spinal cord was isolated on ice followed by removal of meninges. Antibody labeling steps were done according to the respective antibody Microbead kit protocol (Miltenyi biotec), oligodendrocytes (04, 130-096-670) and microglia (CD11 b, 130-093-636).
as §1

myelinating co-cultures = test: Myelinating co-culture in vitro (MBP area normalized to SM131 axons); type: cell-based; conditions: 100 μM squalene
Procedure: Myelinating co-cultures were established as described (Thomson, C. E. et al. 2008) with minor modifications. Briefly, E13 embryonic spinal cords were digested in 0.125% Trypsin solution in HBSS (without Ca^+2 and Mg^+2) at 37° C. for 20 min. After stopping the digestion with 1 ml plating media (DMEM, 25% horse serum, 25% HBSS, […] DNAse) the tissue was homogenized by gentle trituration and centrifuged for 5 min. 150,000 cells were plated per poly-L-lysine coated coverslip; 3 coverslips per 35 mm Petri dish. After cell attachment in plating media, differentiation media was added (low glucose DMEM, […] insulin, 10 ng ml^−1 biotin, 50 nM hydrocortisone, 0.5% N1-mix). N1 mix was 1 mg ml^−1 apo-transferrin, 20 mM putrescine, […] progesterone, and 6 mM sodium selenite. 50% media change was performed every 24-48 h with differentiation media. Squalene (100 μM) was added at day 3 to cultures. After 12 days, insulin was removed from differentiation media. […] Axonal (SM131) area and the area with myelin sheaths (MBP) of seven randomly chosen visual fields of myelinating co-cultures (×20 magnification) was measured by automated threshold with Fiji Software (SM131 Otsu, MBP Triangle). Specimens were analyzed on an Axiophot observer.Z1 (Zeiss) equipped with an AxioCam MRm and the ZEN 2012 blue edition software and evaluated with Image J software.

[8] = prophylactic squalene vs chow fed controls (FIG. 4a)
[9] = prophylactic squalene vs chow fed controls (FIG. 4b)
[10] = acute phase (15 days post immunization), prophylactic squalene vs chow (FIG. 5a)

## CC(C)=CCCC(C)=CCC/C(C)=C/CC/C=C(\C)CC/C=C(\C)CCC=C(C)C (stereo in doubt) [squalene, (6E,10E,14E,18E)-2,6,10,15,19,23-hexamethyltetracosa-2,6,10,14,18,22-hexaene]
[1]; [8]
  Expression of cholesterol export genes (Abca1, Abcg1, Abcg4, Apoe, Clu): significantly increased expression
  Expression of cholesterol synthesis genes (Hmgc1, Hmgcr, Fdft1, Dhcr24, Cyp51a1, Mvk): significantly increased expression
  Expression of cholesterol uptake genes (Ldlr, Vldlr, Apobr, Lrp1, Lrp2): significantly increased expression
  Expression of genes related to myelination and oligodendrocyte differentiation (Plp1, Car2, Olig2, Pdgfra, Cspg4): significantly increased expression
[1]; [9]
  Expression of pro-inflammatory mediator genes: reduced expression
  Gene expression of the anti-inflammatory molecules 1110 and Tgfb1: significantly increased
[2]; 0.5% [v/w] squalene chow from day of lesion induction vs control (FIG. 6b)
  Number of CAII positive mature oligodendrocytes within lesion area: strongly increased
[2]; 0.5% [v/w] squalene chow from day of lesion induction vs control (FIG. 6f)
  Degree of MBP positive myelinated axons within lesion area: strongly increased
[2]; 0.5% [v/w] squalene chow vs control (FIG. 6c)
  Size of the lesion area (DAPI positive increased nuclear density): comparable
[3]
  Number of peripheral immune cells (abTCR/CD4+, abTCR/CD8+, CD45+/CD11b+) per ml blood: did not observe differences
[4]
  Number of inflammatory cells per gram brain: reduced number of inflammatory cells
  Number of inflammatory cells per gram spinal cord: reduced number of inflammatory cells
Plp1-tg mice
  Clinical disease severity by elevated beam testing (number of slips): high potential to ameliorate clinical disease severity
[5]
  Number of CD11b+/CD45+ myeloid cells per gram spinal cord: reduced numbers
  Number of inflammatory CD4+ T cells per gram spinal cord: reduced numbers
  Number of inflammatory CD8+ T cells per gram spinal cord: reduced numbers
[6]; prophylactic regimen, 0.5% [v/w] squalene chow from 14 days before immunization (FIG. 1a, 1c)
  Mean clinical score (EAE disease severity): ameliorate disease severity; also recorded: more effective prophylactic effect than the treatment of multiple sclerosis with interferon beta-1b
[6]; therapeutic regimen, 0.5% [v/w] squalene chow from day of disease onset (FIG. 1b)
  Mean clinical score (EAE disease severity): ameliorate disease severity
[6]; therapeutic regimen, squalene 0.03% [v/w] (FIG. 10a, 10b)
  Mean clinical score (EAE disease severity): Disease amelioration was already present
[6]; therapeutic regimen, squalene 0.03% [v/w], 0.5% [v/w] and 5% [v/w] (FIG. 10a)
  Mean clinical score (EAE disease severity), dose comparison: dose depend
[7]; [10]
  Expression levels of pro-inflammatory mediator genes such as TNF and IL1β: reduced expression levels
  Expression of anti-inflammatory molecules such as TGFβ1: increased expression
[7]; acute phase, prophylactic squalene vs untreated control (FIG. 5b)
  Expression of cholesterol export genes Abca1 and Apoe: upregulated
Myelinating co-cultures; 21 DIV (FIG. 7)
  MBP positive area normalized to SM131 positive axons: increased MBP positive area
Myelinating co-cultures; 30 DIV (FIG. 7)
  MBP positive area normalized to SM131 positive axons: increased MBP positive area
